The values that follow come from patent US11040052B2, “Methods and pharmaceutical compositions for modulating autophagy in a subject in need thereof” (INSERM (INSTITUT NATIONAL DE LA SANTE ET DE LA RECHERCHE …, priority 2013, dated 2021).

Entries after “also recorded” stand apart in the source; their conditions may differ. Read-outs that look alike come from different tables or passages of the source.

Test [1] relates to intracellular amino acid levels. Description: Intracellular amino acid levels by mass spectrometry. It counts as cell-based. Conditions: starved cells. As to the method: Profiling of intracellular metabolites was performed on a RRLC 1260 system (Agilent Technologies) coupled to a QTOF 6520 (Agilent) equipped with an electrospray source operating in positive ion and full scan mode from 100 to 1000 Da. The gas temperature was set at 350° C. with a gas flow of 10 L·min^1. The capillary voltage was set at 4.0 kV, and the fragmentor at 150 V. Two reference masses were used to maintain the mass accuracy during analysis: 121.050873 (C5H4N4) and 922.009798 (C18H18O6N3P3F24). Five μL of sample were injected on a 150 mm×2.1 mm 3.5 μm SB Aq column (Agilent) with a pre-column 30 mm×2.1 mm 3.5 μm Eclipse plus (Agilent). The gradient mobile phase consisted of water with 10 mmol/L of ammonium acetate and 0.01% of acetic acid (A) and acetonitrile (B). Initial composition of mobile phase was 2% of B, followed by an increase to 95% of B in 10 min. The flow rate was set to 0.3 mL·min^−1.

A further test concerns MCA205 tumor. Description: Growth of transplantable tumors with chemotherapy. The test is classed as in vivo, mice. Conditions: for tumor growth, combined with oxaliplatin: data not shown; for tumor growth, combined with MTX: immunocompetent wild type mice, agent given before and with mitoxanthrone; for tumor growth, combined with MTX, immunodeficient mice: nu/nu (nude athymic) mice. As to the method: (§1) C57BL/6 mice (Charles River Laboratory, Lentilly, France) were bred and maintained according to both the FELASA and the Animal Experimental Ethics Committee Guidelines (Val de Marne, France). Mice were housed in a temperature-controlled environment with 12 h light/dark cycles and received food and water ad libitum. For HC-related experiments, mice were injected intraperitoneally with a single 100 mg/kg dose and 6 h later were sacrificed and tissues were immediately frozen in liquid nitrogen. For DCA- and DMKG-related experiments, mice were subjected to 24 h starvation and injected intraperitoneally each 8 h with a 100 mg/kg of either DCA or DMKG solution prepared in PBS. After 24 h of starvation, mice were sacrificed and tissues were immediately frozen in liquid nitrogen after extraction and homogenized two cycles for 20 s at 5,500 rpm using Precellys 24 tissue homogenator (Bertin Technologies, Montigny-le-Bretonneux, France) in a 20 mM Tris buffer (pH 7.4) containing 150 mM NaCl, 1% Triton X-100, 10 mM EDTA and Complete® protease inhibitor cocktail (Roche Applied Science). Tissue extracts were then centrifuged at 12,000 g at 4° C. and supernatants were collected. Protein concentration in the supernatants was evaluated by the bicinchoninic acid technique (BCA protein assay kit, Pierce Biotechnology, Rockford, Ill.). For hydroxycitrate-related weight-loss experiments, autophagy-deficient Atg4b^−/− mice were used. Atg4b^−/− mice have been previously described (Mariño et al., 2010). For HC-, spermidine-, and resveratrol-related experiments (tumour growth) mice were intraperitoneally injected with respectively 100 mg/kg, 50 mg/kg and 100 mg/kg doses at day 8 and day 9. At day 9, mice were intraperitoneally injected with 2 mg/kg single dose of Mitoxanthrone. For starvation related experiment (tumour growth) mice were treated as previously described (Fabrizio et. al., 2010).
Six weeks old female C57BL/6, Balb/c and nude athymic mice (Harlan Laboratory, Gannat, France) were bred and maintained according to both the FELASA and the Animal Experimental Inserm Ethics Committee Guidelines (project: 2012-69). Mice were housed in a temperature-controlled environment with 12 h light/dark cycles and received food and water ad libitum. For tumor growth experiments, procedures adopted are described as follows: 3×10^5 tumor cells were subcutaneously inoculated; when tumors became palpable (day −1 before chemotherapy), mice were first intraperitoneally injected with 100 mg/kg Potassium Hydroxycitrate, 10 mg/kg Acetylsalicylic Acid, 30 mg/kg SB204990, 30 mg/kg c646, 5 mg/kg Rapamycin, 25 mg/kg Resveratrol, 50 mg/kg Spermidine. At day 0, mice were intraperitoneally injected with the abovementioned compounds and with 5.17 mg/Kg Mitoxanthrone or 5 mg/kg Oxaliplatin. Tumor size was measured every two days. For starvation experiments, mice underwent 48 hour fasting followed by intreperitoneal injection of chemotherapeutics. For autophagy induction study, 6 hours after CRMs administration, mice were sacrificed and tissues were snap-frozen in liquid nitrogen after extraction and homogenized two cycles for 20 s at 5,500 rpm using Precellys 24 tissue homogenator (Bertin Technologies, Montigny-le-Bretonneux, France) in a 20 mM Tris buffer (pH 7.4) containing 150 mM NaCl, 1% Triton X-100, 10 mM EDTA and Complete® protease inhibitor cocktail (Roche Applied Science, Penzberg, Germany). Tissue extracts were then centrifuged at 12,000 g at 4° C. and supernatants were collected. Protein concentration in the supernatants was evaluated by the bicinchoninic acid technique (BCA protein assay kit, Pierce Biotechnology, Rockford, US.

Test [2] has as its system autophagy in mice tissues. Description: Autophagy induction in tissues of fed mice (LC3 lipidation, p62, GFP-LC3 dots). It counts as in vivo. The method, then:
as §1
To avoid post-mortem autophagy induction, dead mice were immediately perfused with 4% paraformaldehyde (w:v in PBS, pH 7.4). Tissues were then harvested and further fixed with the same solution for at least 4 h, followed by treatment with 15% sucrose (w:v in PBS) for 4 h and with 30% sucrose (w:v in PBS) overnight. Tissue samples were embedded in Tissue-Tek OCT compound (Sakura Finetechnical Co. Ltd., Tokyo, Japan) and stored at −70° C. Five μm-thick tissue sections were prepared with a CM3050 S cryostat (Leica Microsystems GmbH, Wetzlar, Germany), air-dried for 1 h, washed in PBS for 5 min, dried at RT for 30 min, and mounted with VECTASHIELD anti-fading medium. In each organ, the number of GFP-LC3 dots was counted in five independent visual fields from at least five mice using a TCS SP2 confocal fluorescence microscope (Leica Microsystems GmbH).
Six weeks old female C57BL/6, Balb/c and nude athymic mice (Harlan Laboratory, Gannat, France) were bred and maintained according to both the FELASA and the Animal Experimental Inserm Ethics Committee Guidelines (project: 2012-69). Mice were housed in a temperature-controlled environment with 12 h light/dark cycles and received food and water ad libitum. For tumor growth experiments, procedures adopted are described as follows: 3×10^5 tumor cells were subcutaneously inoculated; when tumors became palpable (day −1 before chemotherapy), mice were first intraperitoneally injected with 100 mg/kg Potassium Hydroxycitrate, 10 mg/kg Acetylsalicylic Acid, 30 mg/kg SB204990, 30 mg/kg c646, 5 mg/kg Rapamycin, 25 mg/kg Resveratrol, 50 mg/kg Spermidine. At day 0, mice were intraperitoneally injected with the abovementioned compounds and with 5.17 mg/Kg Mitoxanthrone or 5 mg/kg Oxaliplatin. Tumor size was measured every two days. For starvation experiments, mice underwent 48 hour fasting followed by intreperitoneal injection of chemotherapeutics. […]

In the case of `COC(=O)CCC(=O)C(=O)OC` [DMKG, dimethyl-α-ketoglutarate], the “intracellular amino acid levels” value in test [1] is on record as “failed to enhance intracellular amino acid levels”.
Consider `O=C(O)CC(O)(C(=O)O)C(O)C(=O)O` (stereo not shown) [HC, hydroxycitrate], for which the “tumor growth, combined with MTX, autophagy-deficient tumors” value with MCA205 tumor (MCA205 cells with Atg5 or Atg7 shRNA) was “tumor growth control is lost; also recorded: largely therapy-resistant”. In addition, the “tumor growth, combined with oxaliplatin” value with MCA205 tumor is “caused superior tumor growth reduction, but only in WT, not in nu/nu mice”; in the test on MCA205 tumor (listed as hydroxycitrate), “improved the therapeutic outcome of treatments with MTX (FIG. 8G) or oxaliplatin”. Also, the “tumor growth, combined with MTX” value is “mimics the effects of 48 h fasting in delaying subcutaneous MCA205 tumor growth; also recorded: improves the efficacy of chemotherapy and significantly reduces tumor growth of MCA205 cells in wild type; also recorded: similarly improved tumor growth reduction by MTX; also recorded: more efficient than monotherapy with MTX” in the test on MCA205 tumor; “enhanced the tumor growth-inhibitory effect of chemotherapy as efficiently as did starvation; also recorded: improved the therapeutic outcome of treatments with MTX” in the test on MCA205 tumor (listed as hydroxycitrate). Also, the “tumor growth, combined with MTX, immunodeficient mice” value in the test on MCA205 tumor is on record as “not in immunodeficient nu/nu mice”. Besides, in the test on MCA205 tumor (tumors engineered to express the ecto-ATPase CD39, data not shown), the “tumor growth, combined with MTX, CD39-expressing tumors” value was “lost its therapeutic efficacy”. Besides, the “autophagy in vivo (LC3 lipidation, p62, GFP-LC3)” value was “induced an increase in autophagic flux in vivo; also recorded: strongly stimulated autophagy both in vitro and in vivo; also recorded: triggered a systemic autophagic response comparable to that induced by starvation; also recorded: similarly efficient as a starvation period of 48 h” in test [2]; “elicits autophagy in mice muscle after 6 hours” in test [2] (listed as Hydroxycitrate); “triggered a systemic autophagic response comparable to that induced by starvation” in test [2] (listed as hydroxycitrate).
For `CC(C)CC(=O)C(=O)O` [KIC, ketoisocaproic acid], in test [1], the “intracellular amino acid levels” value was “barely increased intracellular leucine levels”.
For the compound `CC1=NN(c2ccc(C(=O)O)cc2)C(=O)/C1=C\c1ccc(-c2cc(C)c(C)cc2[N+](=O)[O-])o1` [c646], in the test with MCA205 tumor, the “tumor growth, combined with MTX” value is “can enhance chemotherapy efficacy” and the “tumor growth, combined with MTX, immunodeficient mice” value is given as “failed”. The “tumor growth, combined with MTX” value with MCA205 tumor (listed as C646) is given as “HC could be replaced”. The “autophagy in vivo (LC3 lipidation, p62, GFP-LC3)” value in test [2] was “elicits autophagy in mice muscle after 6 hours; also recorded: induced autophagy both in vitro, in cultured cells, and in vivo, in mice”.
